# Positions count from the first letter of the chain named.
# Columns and labels:
# STAT5b = target: T1, STAT5b (Homo sapiens, UniProt P51692); assay: Fluorescence polarization competitive binding assay, STAT5b; details: read-out: STAT5b inhibition at 200 μM
# T1 construct: made in house
# T1 sequence (P51692 1-787): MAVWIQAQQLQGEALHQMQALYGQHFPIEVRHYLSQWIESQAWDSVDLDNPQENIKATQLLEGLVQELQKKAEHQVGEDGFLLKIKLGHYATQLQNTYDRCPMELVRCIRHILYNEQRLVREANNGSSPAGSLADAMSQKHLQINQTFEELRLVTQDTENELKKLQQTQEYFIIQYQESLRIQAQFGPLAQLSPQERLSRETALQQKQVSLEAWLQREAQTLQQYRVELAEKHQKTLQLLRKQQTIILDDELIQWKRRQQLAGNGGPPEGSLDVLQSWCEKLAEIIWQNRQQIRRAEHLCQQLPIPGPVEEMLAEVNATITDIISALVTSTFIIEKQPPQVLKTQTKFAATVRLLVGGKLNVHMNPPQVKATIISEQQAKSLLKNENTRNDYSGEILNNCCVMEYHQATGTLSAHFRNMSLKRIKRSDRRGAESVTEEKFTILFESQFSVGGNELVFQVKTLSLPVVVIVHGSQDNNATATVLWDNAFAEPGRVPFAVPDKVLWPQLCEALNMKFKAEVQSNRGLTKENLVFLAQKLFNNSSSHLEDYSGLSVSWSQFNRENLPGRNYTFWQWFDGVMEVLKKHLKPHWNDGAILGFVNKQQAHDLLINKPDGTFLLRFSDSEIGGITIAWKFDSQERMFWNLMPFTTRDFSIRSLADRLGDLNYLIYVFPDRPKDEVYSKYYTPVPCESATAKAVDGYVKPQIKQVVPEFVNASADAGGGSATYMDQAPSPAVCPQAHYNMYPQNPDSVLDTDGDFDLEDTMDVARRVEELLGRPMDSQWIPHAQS
# STAT5a Trp566Arg = target: T2, STAT5a Trp566Arg (Homo sapiens, UniProt P42229, W566R); assay: Fluorescence polarization assay, point mutant STAT5a Trp566Arg; type: binding
# T2 construct: made in house
# T2 sequence (P42229 1-794 W566R): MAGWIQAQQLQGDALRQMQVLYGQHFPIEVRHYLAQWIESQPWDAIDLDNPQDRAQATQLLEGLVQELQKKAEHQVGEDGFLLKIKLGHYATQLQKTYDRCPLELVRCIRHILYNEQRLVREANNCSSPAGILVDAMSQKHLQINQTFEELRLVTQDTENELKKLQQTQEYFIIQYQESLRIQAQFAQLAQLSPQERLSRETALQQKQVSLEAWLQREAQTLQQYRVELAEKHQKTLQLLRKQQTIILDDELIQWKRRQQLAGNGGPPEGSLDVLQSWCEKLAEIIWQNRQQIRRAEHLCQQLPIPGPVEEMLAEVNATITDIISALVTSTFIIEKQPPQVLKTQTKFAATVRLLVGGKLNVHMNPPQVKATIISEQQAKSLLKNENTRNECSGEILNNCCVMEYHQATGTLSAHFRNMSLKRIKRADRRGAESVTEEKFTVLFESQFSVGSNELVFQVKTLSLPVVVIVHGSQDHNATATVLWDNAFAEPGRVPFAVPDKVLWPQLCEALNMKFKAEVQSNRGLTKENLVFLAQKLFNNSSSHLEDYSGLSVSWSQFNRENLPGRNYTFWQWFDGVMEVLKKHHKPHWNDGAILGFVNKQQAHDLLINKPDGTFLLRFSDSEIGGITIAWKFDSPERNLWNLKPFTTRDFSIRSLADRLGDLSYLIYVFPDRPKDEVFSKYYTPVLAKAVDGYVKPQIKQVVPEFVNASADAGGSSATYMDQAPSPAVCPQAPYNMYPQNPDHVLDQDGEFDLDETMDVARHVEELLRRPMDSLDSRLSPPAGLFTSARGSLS
# [1] = target: T3, STAT5b Arg566Trp/Met644Lys (Homo sapiens, UniProt P51692, M644K/R566W); assay: Fluorescence polarization assay, double mutant STAT5b Arg566Trp/Met644Lys; type: binding; details: FP assay
# T3 construct: made in house
# T3 sequence (P51692 1-787 R566W/M644K): T1 sequence (P51692 1-787) with R566W, M644K
# STAT3 = STAT3 (Homo sapiens, UniProt P40763); assay: Fluorescence polarization competitive binding assay, STAT3 SH2 domain; details: read-out: STAT3 inhibition at 200 μM
# Text: Expression and purification of STAT1, STAT3, STAT4, STAT5a, STAT5b, STAT5a Trp566Arg, STAT5b Arg566Trp, STAT5b 6M, STAT5b 7M, STAT6, and Lck have previously been described.[4, 12] STAT proteins were purified over a single His-Bind resin (Millipore) column.
# Wild-type and mutant STAT5a/b proteins used for activity analysis of 20 were purified over two successive His-Bind resin columns.[4, 13]
# Fluorescence Polarization assays
# Competitive binding assays based on fluorescence polarization were essentially carried out as described.[14] Unless stated otherwise, the following final concentration of proteins were used:
# STAT4; 105 nM for STAT6; 30 nM for Lck. Final concentration of all peptides: 10 nM. Peptides used: 5-carboxyfluorescein-GpYLVLDKW for STAT5a/b and point mutants thereof; 5-carboxyfluorescein-GpYLPQTV-NH2 for STAT3; 5-carboxyfluorescein-GpYDKPHVL for STAT1; 5-carboxyfluorescein-GpYLPQNID-OH for STAT4; 5-carboxyfluorescein-
# analysis of 20 against wild-type (wt) STAT5a/b and STAT5a/b point mutants, the following concentrations of double-purified protein were used, which reflect the approximate Kd values of the interactions with 5-carboxyfluorescein-GpYLVLDKW: STAT5a wt: 147 nM; STAT5b wt:
# STAT5b 6M: 80 nM; STAT5b 7M: 282 nM. Assay buffer: 10 mM Tris (pH 8.0), 50 mM NaCl, 1 mM EDTA, 1 mM DTT, 0.1 % Nonidet P-40 substitute, and 2 % DMSO in water. A major part of the pipetting was done using a Biomek FXp sceening robot (Beckman-Coulter). Protein and test compounds were incubated for 1 h, followed by addition of the fluorescein-labeled peptide.
# Fluorescence polarization was measured after another hour using an Infinite F500 plate reader (Tecan). IC50 values were converted to Ki-values using the published equation.[15]
# [2] = FP assay, double-purified protein
# Chain of STAT3 (P40763 whole entry, species assumed, the tested form may be a part): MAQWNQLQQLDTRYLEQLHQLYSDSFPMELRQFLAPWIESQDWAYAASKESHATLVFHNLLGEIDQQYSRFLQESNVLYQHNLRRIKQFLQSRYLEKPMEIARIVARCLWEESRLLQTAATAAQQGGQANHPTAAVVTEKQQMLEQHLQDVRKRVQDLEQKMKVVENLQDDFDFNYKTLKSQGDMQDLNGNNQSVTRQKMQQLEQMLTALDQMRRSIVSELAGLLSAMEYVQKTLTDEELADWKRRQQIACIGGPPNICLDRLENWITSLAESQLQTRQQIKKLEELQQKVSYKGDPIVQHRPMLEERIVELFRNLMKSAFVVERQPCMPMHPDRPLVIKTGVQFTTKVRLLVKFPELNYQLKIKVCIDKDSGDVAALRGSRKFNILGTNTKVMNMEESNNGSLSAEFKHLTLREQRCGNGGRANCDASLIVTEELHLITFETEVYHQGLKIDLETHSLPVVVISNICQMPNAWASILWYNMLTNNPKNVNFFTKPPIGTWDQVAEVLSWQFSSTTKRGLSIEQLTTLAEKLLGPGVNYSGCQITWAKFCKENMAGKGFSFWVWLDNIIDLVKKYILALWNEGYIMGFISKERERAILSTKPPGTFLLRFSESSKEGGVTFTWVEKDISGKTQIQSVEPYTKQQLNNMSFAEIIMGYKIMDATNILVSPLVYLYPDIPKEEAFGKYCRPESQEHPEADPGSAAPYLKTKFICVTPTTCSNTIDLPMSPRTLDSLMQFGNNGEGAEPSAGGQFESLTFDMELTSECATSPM
compound,measurement,setting,value
COc1cc(-c2cc(OP(=O)(O)O)cc(-c3cc(OC)c(OC)c(OC)c3)c2)cc(OC)c1OC [Compound 20],inhibition at 200 µM,STAT5b,37 ± 5%
same,IC50,STAT5a Trp566Arg; [2],155 ± 15 µM
same,Ki,STAT5a Trp566Arg; [2],74 ± 7 µM
same,reduction of activity against STAT5a Trp566Arg as compared to wild-type STAT5a,STAT5a Trp566Arg; FP assays,7 fold
same,IC50,[1],128 ± 8 µM
same,Ki,[1],63.1 ± 4.2 µM
same,inhibition at 200 µM,STAT3,27 ± 2%
